Laboratory results as given in patent US10597388B2, “Pyridazinone herbicides” (FMC CORPORATION, priority 2014, dated 2020).

How the values were obtained:
Experiment in all cases: Test E greenhouse herbicide test, pre- and postemergence
Assay type in all cases: in vivo
[1] = test system: velvetleaf (Abutilon theophrasti); conditions: Preemergence
In short: (§1)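 Seedlings reaching 2–18 cm (1- to 4-leaf stage) received foliar treatment, while seeds in silt loam received a soil surface spray; the vehicle in each case was a non-phytotoxic solvent mixture including surfactant. Visual scoring versus controls followed 14–21 d later on a 0–100 scale.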

[2] = test system: pigweed, palmer (palmer pigweed, Amaranthus palmeri)
In short: as §1

[3] = test system: goosegrass (Eleusine indica); conditions: Preemergence
In short: as §1

[4] = test system: crabgrass, Brazilian (Brazilian crabgrass, Digitaria horizontalis)
In short: as §1

[5] = test system: barnyardgrass (Echinochloa crus-galli)
In short: as §1

corn (Zea mays) = test system: corn (Zea mays)
In short: as §1

[6] = test system: nightshade (eastern black nightshade, Solanum ptycanthum); conditions: Preemergence
In short: as §1

kochia (Kochia scoparia) = test system: kochia (Kochia scoparia)
In short: as §1

[7] = test system: foxtail, green (green foxtail, Setaria viridis); conditions: Preemergence
In short: as §1

[8] = test system: ragweed (common ragweed, Ambrosia elatior)
In short: as §1

[9] = test system: johnsongrass (Sorghum halepense); conditions: Preemergence
In short: as §1

[10] = test system: waterhemp (common waterhemp, Amaranthus rudis)
In short: as §1

[11] = test system: Italian ryegrass (Lolium multiflorum)
In short: as §1

[12] = test system: sandbur (southem sandbur, Cenchrus echinatus)
In short: as §1

[13] = test system: surinam grass (Brachiaria decumbens); conditions: Preemergence
In short: as §1

[14] = test system: crabgrass, large (large crabgrass, Digitaria sanguinalis); conditions: Preemergence
In short: as §1

[15] = test system: nutsedge, yellow (yellow nutsedge, Cyperus esculentus); conditions: Preemergence
In short: as §1

[16] = 62 g ai/ha, scale 0 to 100 (0 no effect, 100 complete control)
[17] = 125 g ai/ha, scale 0 to 100 (0 no effect, 100 complete control)
[18] = 31 g ai/ha, scale 0 to 100, 0 no effect, 100 complete control
[19] = 250 g ai/ha, visual, scale 0 no effect to 100 complete control
[20] = 62 g ai/ha, Preemergence, scale 0 to 100 (0 no effect, 100 complete control)
[21] = 125 g ai/ha, Postemergence, scale 0 to 100 (0 no effect, 100 complete control)
[22] = 125 g ai/ha, Preemergence, scale 0 to 100 (0 no effect, 100 complete control)
[23] = 250 g ai/ha, Postemergence, scale 0 to 100 (0 no effect, 100 complete control)
[24] = Preemergence, 31 g ai/ha, scale 0 to 100, 0 no effect, 100 complete control
[25] = Preemergence, 250 g ai/ha, visual, scale 0 no effect to 100 complete control
[26] = 125 g ai/ha, visual, scale 0 no effect to 100 complete control
[27] = Preemergence, 125 g ai/ha, visual, scale 0 no effect to 100 complete control

CCC(=O)Oc1c(C)nn(C)c(=O)c1-c1c(C)sc2c(C)cc(C)cc12 [Compound 28]
Plant response rating, Velvetleaf [1, 16]: 35 | Plant response rating, Velvetleaf [1, 17]: 70 | Plant response rating, Velvetleaf [1, 18]: 0 | Plant response rating, Velvetleaf [1, 19]: 100 | Plant response rating, Pigweed, Palmer [2, 20]: 65 | Plant response rating, Pigweed, Palmer [2, 21]: 50 | Plant response rating, Pigweed, Palmer [2, 22]: 95 | Plant response rating, Pigweed, Palmer [2, 23]: 50 | Plant response rating, Pigweed, Palmer [2, 24]: 0 | Plant response rating, Pigweed, Palmer [2, 25]: 98 | Plant response rating, Goosegrass [3, 16]: 60 | Plant response rating, Goosegrass [3, 18]: 35 | Plant response rating, Goosegrass [3, 26]: 75 | Plant response rating, Goosegrass [3, 19]: 90 | Plant response rating, Crabgrass, Brazil [4, 20]: 70 | Plant response rating, Crabgrass, Brazil [4, 21]: 50 | Plant response rating, Crabgrass, Brazil [4, 23]: 60 | Plant response rating, Crabgrass, Brazil [4, 24]: 70 | Plant response rating, Crabgrass, Brazil [4, 27]: 80 | Plant response rating, Crabgrass, Brazil [4, 25]: 90 | Plant response rating, Barnyardgrass [5, 20]: 20 | Plant response rating, Barnyardgrass [5, 21]: 50 | Plant response rating, Barnyardgrass [5, 23]: 60 | Plant response rating, Barnyardgrass [5, 24]: 20 | Plant response rating, Barnyardgrass [5, 27]: 65 | Plant response rating, Barnyardgrass [5, 25]: 90 | Plant response rating, Corn (corn (Zea mays); [20]): 0 | Plant response rating, Corn (corn (Zea mays); [21]): 5 | Plant response rating, Corn (corn (Zea mays); [23]): 5 | Plant response rating, Corn (corn (Zea mays); [24]): 0 | Plant response rating, Corn (corn (Zea mays); [27]): 0 | Plant response rating, Corn (corn (Zea mays); [25]): 0 | Plant response rating, Nightshade [6, 16]: 98 | Plant response rating, Nightshade [6, 17]: 98 | Plant response rating, Nightshade [6, 18]: 80 | Plant response rating, Nightshade [6, 19]: 100 | Plant response rating, Kochia (kochia (Kochia scoparia); [20]): 0 | Plant response rating, Kochia (kochia (Kochia scoparia); [21]): 75 | Plant response rating, Kochia (kochia (Kochia scoparia); [23]): 90 | Plant response rating, Kochia (kochia (Kochia scoparia); [24]): 0 | Plant response rating, Kochia (kochia (Kochia scoparia); [27]): 60 | Plant response rating, Kochia (kochia (Kochia scoparia); [25]): 100 | Plant response rating, Foxtail, Green [7, 16]: 98 | Plant response rating, Foxtail, Green [7, 18]: 65 | Plant response rating, Foxtail, Green [7, 26]: 100 | Plant response rating, Foxtail, Green [7, 19]: 100 | Plant response rating, Ragweed [8, 20]: 90 | Plant response rating, Ragweed [8, 21]: 70 | Plant response rating, Ragweed [8, 22]: 95 | Plant response rating, Ragweed [8, 23]: 75 | Plant response rating, Ragweed [8, 24]: 95 | Plant response rating, Ragweed [8, 25]: 98 | Plant response rating, Johnsongrass [9, 16]: 80 | Plant response rating, Johnsongrass [9, 18]: 70 | Plant response rating, Johnsongrass [9, 26]: 80 | Plant response rating, Johnsongrass [9, 19]: 90 | Plant response rating, Waterhemp [10, 20]: 80 | Plant response rating, Waterhemp [10, 21]: 70 | Plant response rating, Waterhemp [10, 22]: 98 | Plant response rating, Waterhemp [10, 23]: 75 | Plant response rating, Waterhemp [10, 24]: 65 | Plant response rating, Waterhemp [10, 25]: 100 | Plant response rating, Ryegrass, Italian [11, 20]: 80 | Plant response rating, Ryegrass, Italian [11, 21]: 75 | Plant response rating, Ryegrass, Italian [11, 22]: 95 | Plant response rating, Ryegrass, Italian [11, 23]: 75 | Plant response rating, Ryegrass, Italian [11, 24]: 70 | Plant response rating, Ryegrass, Italian [11, 25]: 100 | Plant response rating, Sandbur [12, 20]: 65 | Plant response rating, Sandbur [12, 21]: 60 | Plant response rating, Sandbur [12, 22]: 80 | Plant response rating, Sandbur [12, 23]: 80 | Plant response rating, Sandbur [12, 24]: 15 | Plant response rating, Sandbur [12, 25]: 85 | Plant response rating, Surinam Grass [13, 16]: 98 | Plant response rating, Surinam Grass [13, 17]: 100 | Plant response rating, Surinam Grass [13, 18]: 85 | Plant response rating, Surinam Grass [13, 19]: 98 | Plant response rating, Crabgrass, Large [14, 16]: 35 | Plant response rating, Crabgrass, Large [14, 26]: 90 | Plant response rating, Crabgrass, Large [14, 19]: 90 | Plant response rating, Nutsedge, Yellow [15, 16]: 20 | Plant response rating, Nutsedge, Yellow [15, 17]: 70 | Plant response rating, Nutsedge, Yellow [15, 18]: 20 | Plant response rating, Nutsedge, Yellow [15, 19]: 95
